≈ marks a conversion by molar mass, not a printed value.
Experiments:
[1] = biological target: human CD40–CD40L interaction (Homo sapiens, UniProt P29965)
[2] = tested on: Mac-1 (αMβ2)–CD40L interaction; assay: cell-free Mac-1–CD40L binding inhibition assay; design: species or system human; conditions: compared with CD40–CD40L activity; Figure S1
[3] = tested on: THP-1 human myeloid cells; conditions: THP-1 cells, 0.5 µg/mL MegaCD40L, 48 h; Figure S2
[4] = tested on: Salmonella typhimurium TA-100; assay: Muta-Chromplate mutagenicity assay; conditions: S. typhimurium TA-100; concentrations tested of up to 500 µM; Figure S4
[5] = tested on: Balb/c skin allografts in C57BL/6 mice; conditions: two week treatment, 30 mg/kg daily s.c. in 20% HPβCD
water solubility = format: physicochemical; conditions: distilled water, Estimated water solubility, saturated solution
[6] = tested on: THP-1 human myeloid cells; assay: MTT cytotoxicity assay; format: cell-based; conditions: THP-1 cells, 48 h; concentrations of up to 100 and 200 µM; Figure S3

Chain of human CD40–CD40L interaction (P29965 113-261 limits assumed): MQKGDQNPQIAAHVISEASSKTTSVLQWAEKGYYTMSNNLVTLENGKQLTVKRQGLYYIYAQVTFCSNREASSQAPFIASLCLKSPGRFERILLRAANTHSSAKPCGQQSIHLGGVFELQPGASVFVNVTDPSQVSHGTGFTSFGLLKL

For O=C(Nc1ccc2c(O)c(/N=N/c3ccc(N=Nc4ccc(S(=O)(=O)O)cc4)cc3S(=O)(=O)O)c(S(=O)(=O)O)cc2c1)Nc1ccc2c(O)c(/N=N/c3ccc(N=Nc4ccc(S(=O)(=O)O)cc4)cc3S(=O)(=O)O)c(S(=O)(=O)O)cc2c1 (stereo in doubt) [Compound 1, direct red 80, reference compound], the “ligand efficiency (LE)” value ([1]; binding free energy per non-hydrogen atom) was 0.4 kJ/atom and the “increase of inhibitory potency in Mac-1–CD40L assay” value [2] was “about 10 fold”.
For CSCC[C@H](NC(=O)[C@@H](NC(=O)[C@H](Cc1ccc(O)cc1)NC(=O)[C@H](Cc1ccc(O)cc1)NC(=O)CNC(=O)[C@H](CCCCN)NC(=O)[C@H](CCCCN)NC(=O)[C@H](C)NC(=O)[C@H](Cc1c[nH]c2ccccc12)NC(=O)[C@H](CCC(N)=O)NC(=O)[C@H](CC(C)C)NC(=O)[C@@H](N)C(C)C)[C@@H](C)O)C(=O)N[C@@H](CCCCN)C(=O)N[C@@H](CO)C(=O)N[C@@H](CC(N)=O)C(=O)O [mouse KGYY15], the “CD40 IC50” value ([1]; cell-free, soluble CD40L binding to plate-coated CD40, Hill slope 1 fit) was “no inhibitory activity”.
With O=C(Nc1ccc(-c2ccc(C(=O)Nc3cccc4cccc(S(=O)(=O)O)c34)cc2)cc1)c1ccc([N+](=O)[O-])cc1 [Compound 6, 8-(4’-(4-Nitrobenzamido)biphenyl-4-ylcarboxamido)naphthalene-1-sulfonic acid] the “effect on CD40L-induced MHC-II upregulation” value (shortened to “effect”) [3] was “concentration-dependently inhibited” and the “genotoxic potential (Ames test)” value [4] was “neither of these compounds was found to have genotoxic potential”.
With COC(=O)c1ccc(C(=O)Nc2ccc(-c3ccc(C(=O)Nc4cccc5cccc(S(=O)(=O)O)c45)cc3)cc2)cc1 [Compound 10, 8-(4’-(4-(Methoxycarbonyl)benzamido)biphenyl-4-ylcarboxamido)naphthalene-1-sulfonic acid] the “toxicity during chronic treatment” value [5] was “no signs of toxicity”, the solubility (water solubility) was 164 µg/mL (≈ 282 µM) and the “effect” value [3] was “concentration-dependently inhibited”. The “genotoxic potential (Ames test)” value [4] was “neither of these compounds was found to have genotoxic potential”.
For O=C(Nc1ccc(-c2ccc(C(=O)Nc3ccc(C(=O)O)c4ccccc34)cc2)cc1)c1ccc([N+](=O)[O-])cc1 [Compound 11, 4-(4’-(4-Nitrobenzamido)biphenyl-4-ylcarboxamido)-1-naphthoic acid], the “cytotoxicity (MTT, viability)” value [6] was “significant effect on viability at 100 µM” and the “effect” value [3] was “concentration-dependently inhibited”.
With Nc1ccc(C(=O)Nc2ccc(-c3ccc(C(=O)Nc4cccc5cccc(S(=O)(=O)O)c45)cc3)cc2)cc1 [Compound 8, 8-(4’-(4-Aminobenzamido)biphenyl-4-ylcarboxamido)naphthalene-1-sulfonic acid] the “increase of inhibitory potency in Mac-1–CD40L assay” value [2] was “about 10 fold”.

— publication PMC5823691 (Journal of medicinal chemistry, 2017)
